Data as given in US20240122865A1, “Methods of Protecting RNA” (Pfizer Inc., priority 2021, published 2024).

What follows are molecules tested on FgenL model RNA (assay: TapeStation Assay, FgenL model RNA). Conditions: FgenL RNA, 20 mM amino acids, 50 mM CAPS pH 11, 50° C. 15 min, vs Time 0.
Type: biochemical, Trichoderma atroviride
Parameters: Conc. FgenL#1 / Conc. FgenL#2: unit not given here
In short: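 Chi18 or FgenL model RNA at 50 ng/μL in 50 mM CAPS pH 11 was mixed with amino acids (stocks in CAPS, readjusted to >pH 11) and heated at 50° C for 0 or 15 minutes; time-0 samples stayed on ice. Intact RNA was measured by capillary electrophoresis with optical detection and compared with a no-degradation baseline.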

Structure (SMILES) | % Control N = 1 [%] | % Control N = 2 [%]
NCC(=O)O [Glycine] | 39.4 | 37.2
N[C@@H](Cc1c[nH]cn1)C(=O)O [Histidine] | 4.2 | 3.7
O=C(O)[C@@H]1C[C@@H](O)CN1 [Hydroxyproline] | 14.8 | 10.7

Same assay, conditions: FgenL RNA, 20 mM amino acids, 50 mM CAPS pH 11, 50° C. 15 min, vs Time 0, Avg N=2

Structure (SMILES) | % Control Average [%]
NCC(=O)O [Glycine] | 38.3
N[C@@H](Cc1c[nH]cn1)C(=O)O [Histidine] | 4.0
O=C(O)[C@@H]1C[C@@H](O)CN1 [Hydroxyproline] | 12.8

Same assay, conditions: intact FgenL RNA after 15 min at 50° C., 20 mM amino acids in 50 mM CAPS pH 11, run #1

Structure (SMILES) | Conc. FgenL#1
NCC(=O)O [Glycine] | 13.6
N[C@@H](Cc1c[nH]cn1)C(=O)O [Histidine] | 1.46
O=C(O)[C@@H]1C[C@@H](O)CN1 [Hydroxyproline] | 5.12

Same assay, conditions: intact FgenL RNA after 15 min at 50° C., 20 mM amino acids in 50 mM CAPS pH 11, run #2

Structure (SMILES) | Conc. FgenL#2
NCC(=O)O [Glycine] | 12.9
N[C@@H](Cc1c[nH]cn1)C(=O)O [Histidine] | 1.3
O=C(O)[C@@H]1C[C@@H](O)CN1 [Hydroxyproline] | 3.73

The molecules below were run on FgenL mRNA construct (assay: Size Exclusion Base Hydrolysis Degradation Assay, FgenL). Conditions: FgenL 0.1 mg/mL, 25 mM amino acid, 50 mM CAPS, T=0, replicate 1.
Type: biochemical, Trichoderma atroviride
Protocol: (§1) Basic assay procedure: RNA samples were diluted to 1.0 mg/mL in DNAase/RNAase free water. Amino acids were dissolved in water to a stock solution of 100 mM and a solution of 500 mM CAPS pH 11 was used. The two mRNA constructs tested were FgenL and Chi18. Each individual sample volume was 50 μL. To determine the amount of 1 M NaOH needed to adjust the final pH to 11.0 after the addition of all sample components, the sample volume was increased 100 fold (5 mL), the volume of 1 M NaOH recorded and this value was translated back down to the 50 μL sample volume.
(§2) The mRNA and amino acid were allowed to incubate for one hour prior to the addition of CAPS pH 11. All steps of the assay were conducted at room temperature.
(§3) Degradation reaction: After the CAPS addition, the samples were injected onto the Waters H-Class UPLC system to record the first timepoint, T=O. This resulting chromatogram was processed by integrating the area of absorbance at 250 nm for the mRNA construct. Immediately following this timepoint, the pH was adjusted to 11. Subsequent time points (2 hrs, 10 hrs, and 24 hrs) recorded the Absorbance Units (peak area) at 250 nm as a percentage of the peak area determined at T=O. Integration of the chromatogram for subsequent timepoints was conducted by analyzing the area of absorbance at 250 nm contained within the same time window in which the peak eluted in T=0 for the 100% intact mRNA.

Structure (SMILES) | T0 R1 peak area at 250 nm
NCC(=O)O [Glycine] | 18897
N[C@@H](Cc1c[nH]cn1)C(=O)O [Histidine] | 18949
O=C(O)[C@@H]1C[C@@H](O)CN1 [Hydroxyproline] | 16626

Same assay, conditions: FgenL, 25 mM amino acid, 50 mM CAPS pH 11, room temperature, 2 hrs

Structure (SMILES) | T2 Avg, peak area as percentage of T=0 [%]
NCC(=O)O [Glycine] | 29.3
N[C@@H](Cc1c[nH]cn1)C(=O)O [Histidine] | 34.5
O=C(O)[C@@H]1C[C@@H](O)CN1 [Hydroxyproline] | 22.4

Same assay, conditions: FgenL, 25 mM amino acid, 50 mM CAPS pH 11, room temperature, 2 hrs, replicate 1

Structure (SMILES) | T2 R1 peak area at 250 nm
NCC(=O)O [Glycine] | 3657
N[C@@H](Cc1c[nH]cn1)C(=O)O [Histidine] | 8325
O=C(O)[C@@H]1C[C@@H](O)CN1 [Hydroxyproline] | 5048

Same assay, conditions: FgenL, 25 mM amino acid, 50 mM CAPS pH 11, room temperature, 10 hrs

Structure (SMILES) | T10 Avg, peak area as percentage of T=0 [%]
NCC(=O)O [Glycine] | 0.0
N[C@@H](Cc1c[nH]cn1)C(=O)O [Histidine] | 0.0
O=C(O)[C@@H]1C[C@@H](O)CN1 [Hydroxyproline] | 0.0

Same assay, conditions: FgenL, 25 mM amino acid, 50 mM CAPS pH 11, room temperature, 10 hrs, replicate 1

Structure (SMILES) | T10 R1 peak area at 250 nm
NCC(=O)O [Glycine] | 0
N[C@@H](Cc1c[nH]cn1)C(=O)O [Histidine] | 0
O=C(O)[C@@H]1C[C@@H](O)CN1 [Hydroxyproline] | 0

Same assay, conditions: FgenL, 25 mM amino acid, 50 mM CAPS pH 11, room temperature, 24 hrs

Structure (SMILES) | T24 Avg, peak area as percentage of T=0 [%]
NCC(=O)O [Glycine] | 0.0
N[C@@H](Cc1c[nH]cn1)C(=O)O [Histidine] | 0.0
O=C(O)[C@@H]1C[C@@H](O)CN1 [Hydroxyproline] | 0.0

Same assay, conditions: FgenL, 25 mM amino acid, 50 mM CAPS pH 11, room temperature, 24 hrs, replicate 1

Structure (SMILES) | T24 R1 peak area at 250 nm
NCC(=O)O [Glycine] | 0
N[C@@H](Cc1c[nH]cn1)C(=O)O [Histidine] | 0
O=C(O)[C@@H]1C[C@@H](O)CN1 [Hydroxyproline] | 0

Same assay, conditions: FgenL, 25 mM amino acid, T=0 (reference)

Structure (SMILES) | T0 Avg, peak area as percentage of T=0 [%]
NCC(=O)O [Glycine] | 100.0
N[C@@H](Cc1c[nH]cn1)C(=O)O [Histidine] | 100.0
O=C(O)[C@@H]1C[C@@H](O)CN1 [Hydroxyproline] | 100.0

The molecules below were run on Chi18 mRNA construct (assay: Size Exclusion Base Hydrolysis Degradation Assay, Chi18). Conditions: Chi18 0.1 mg/mL, 25 mM amino acid, 50 mM CAPS, T=0, replicate 1.
Type: biochemical, Trichoderma atroviride
Protocol: as §1, §2, §3

Structure (SMILES) | T0 R1 peak area at 250 nm
NCC(=O)O [Glycine] | 32571
N[C@@H](Cc1c[nH]cn1)C(=O)O [Histidine] | 27170
O=C(O)[C@@H]1C[C@@H](O)CN1 [Hydroxyproline] | 13659

Same assay, conditions: Chi18, 25 mM amino acid, 50 mM CAPS pH 11, room temperature, 2 hrs

Structure (SMILES) | T2 Avg, peak area as percentage of T=0 [%]
NCC(=O)O [Glycine] | 69.6
N[C@@H](Cc1c[nH]cn1)C(=O)O [Histidine] | 152.8
O=C(O)[C@@H]1C[C@@H](O)CN1 [Hydroxyproline] | 76.2

Same assay, conditions: Chi18, 25 mM amino acid, 50 mM CAPS pH 11, room temperature, 2 hrs, replicate 1

Structure (SMILES) | T2 R1 peak area at 250 nm
NCC(=O)O [Glycine] | 21950
N[C@@H](Cc1c[nH]cn1)C(=O)O [Histidine] | 14612
O=C(O)[C@@H]1C[C@@H](O)CN1 [Hydroxyproline] | 8540

Same assay, conditions: Chi18, 25 mM amino acid, 50 mM CAPS pH 11, room temperature, 10 hrs

Structure (SMILES) | T10 Avg, peak area as percentage of T=0 [%]
NCC(=O)O [Glycine] | 0.0
N[C@@H](Cc1c[nH]cn1)C(=O)O [Histidine] | 2.8
O=C(O)[C@@H]1C[C@@H](O)CN1 [Hydroxyproline] | 34.2

Same assay, conditions: Chi18, 25 mM amino acid, 50 mM CAPS pH 11, room temperature, 10 hrs, replicate 1

Structure (SMILES) | T10 R1 peak area at 250 nm
NCC(=O)O [Glycine] | 0
N[C@@H](Cc1c[nH]cn1)C(=O)O [Histidine] | 1391
O=C(O)[C@@H]1C[C@@H](O)CN1 [Hydroxyproline] | 3280

Same assay, conditions: Chi18, 25 mM amino acid, 50 mM CAPS pH 11, room temperature, 24 hrs

Structure (SMILES) | T24 Avg, peak area as percentage of T=0 [%]
NCC(=O)O [Glycine] | 0.0
N[C@@H](Cc1c[nH]cn1)C(=O)O [Histidine] | 0.0
O=C(O)[C@@H]1C[C@@H](O)CN1 [Hydroxyproline] | 0.0

Same assay, conditions: Chi18, 25 mM amino acid, 50 mM CAPS pH 11, room temperature, 24 hrs, replicate 1

Structure (SMILES) | T24 R1 peak area at 250 nm
NCC(=O)O [Glycine] | 0
N[C@@H](Cc1c[nH]cn1)C(=O)O [Histidine] | 0
O=C(O)[C@@H]1C[C@@H](O)CN1 [Hydroxyproline] | 0

Same assay, conditions: Chi18, 25 mM amino acid, T=0 (reference)

Structure (SMILES) | T0 Avg, peak area as percentage of T=0 [%]
NCC(=O)O [Glycine] | 100.0
N[C@@H](Cc1c[nH]cn1)C(=O)O [Histidine] | 100.0
O=C(O)[C@@H]1C[C@@H](O)CN1 [Hydroxyproline] | 100.0

The molecules below were run against Chi18 model RNA (assay: Droplet Digital Polymerase Chain Reaction (ddPCR) Assay, Chi18). Conditions: percent protection, pH 11.0, 30° C., 16 hours, n = 2.
Type: biochemical, Trichoderma atroviride
In short: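 Chi18 (25 fg/μL) or FgenL (10 fg/μL) RNA at pH 11.0 incubated 16 h with amino acids (10-point half-log series, ~300 mM top stock in CAPS), at 30° C or 44° C respectively. Intact RNA reverse-transcribed, ddPCR 5′-positive droplet fraction taken as protection; EC50 from four-parameter logistic fit.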

Structure (SMILES) | EC50 [mM]
NCC(=O)O [Glycine] | 15
N[C@@H](Cc1c[nH]cn1)C(=O)O [Histidine] | > 30
O=C(O)[C@@H]1C[C@@H](O)CN1 [Hydroxyproline] | > 30

The molecules below were run on FgenL model RNA (assay: not given). Conditions: percent protection, pH 11.0, 44° C., 16 hours, n = 2.
Type: biochemical, Trichoderma atroviride

Structure (SMILES) | EC50 [mM]
NCC(=O)O [Glycine] | > 30
N[C@@H](Cc1c[nH]cn1)C(=O)O [Histidine] | > 30
O=C(O)[C@@H]1C[C@@H](O)CN1 [Hydroxyproline] | > 30
